Patent publication US9149471B2, “Therapeutic agent for osteoporosis” (NATIONAL UNIV. CORP. TOKYO UNIV. OF AG. AND TECH, priority 2013, dated 2015)

Key:
[1] = test system: mouse model intratibially transplanted with an A549-luc-BM1 human lung cancer cell line; assay: Abnormal bone formation and bone resorption in mouse model intratibially transplanted with A549-luc-BM1 cells (μCT); format: in vivo; conditions: A549-luc-BM1 in mouse tibia
Text: Inhibitory Effect on the Abnormal Bone Formation and Bone Resorption in the Mouse Model Intratibially Transplanted an A549-Luc-BM1 Human Lung Cancer Cell Line The A549 human lung cancer cell line in which the luciferase gene was transfected was transplanted in the left ventricle of nude mice, whereby the A549-luc-BM1 lung cancer cell line, which selectively metastasizes to and proliferates in the bone, was established. The cells thus obtained were transplanted in the mouse tibia at 2×10^6 cells/15 μL. On Day 7 after transplantation, the luciferase activity in the graft site was measured by an in-vivo imaging system. Subsequently, the mice were grouped so that the average luciferase activity of each group was equal, and the compound IA was administered orally at 200 mg/kg/day every day for 28 days. The treatment control group received subcutaneous administration of zoledronic acid, which is the third-generation bisphosphonate preparation, at 0.2 mg/kg/day twice a week. For the evaluation of bone lesions, the graft site was imaged by μCT on Day 36 after transplantation.

[2] = test system: mouse model intratibially transplanted with a PC-3 human prostate cancer cell line; assay: Abnormal bone formation and bone resorption in mouse model intratibially transplanted with PC-3 cells (μCT); format: in vivo; conditions: PC-3 in mouse tibia, 200 mg/kg/day orally every day for 10 days
Description: Inhibitory Effect on the Abnormal Bone Formation and Bone Resorption in the Mouse Model Intratibially Transplanted with a PC-3 Human Prostate Cancer Cell Line
The PC-3 human prostate cancer cell line was transplanted in the mouse tibia at 2×10^6 cells/15 μL. On the following day of transplantation, the mice were grouped so that the average body weight of the mice in each group was equal, and the compound IA was administered orally at 200 mg/kg/day every day for 10 days. On Day 11 after transplantation, the graft site was imaged by μCT and bone lesions were evaluated.

CNC(=O)c1cc2c(Oc3ccc(NC(=S)NC(=O)Cc4ccccc4)cc3F)ccnc2cc1OC [Compound IA, 4-[2-fluoro-4-[[[(2-phenylacetyl)amino]thioxomethyl]amino]-phenoxy]-7-methoxy-N-methyl-6-quinolinecarboxamide]
inhibitory effect on abnormal bone metabolism (bone resorption and bone formation) compared with zoledronic acid ([1]; 200 mg/kg/day orally for 28 days): better inhibitory effect on abnormal bone metabolism (bone resorption and bone formation) than zoledronic acid | bone destruction and deformation at the graft site (μCT, FIG. 2) ([1]; compound IA 200 mg/kg/day orally for 28 days, zoledronic acid 0.2 mg/kg/day s.c. twice a week, μCT on Day 36): remarkably inhibited bone destruction and deformation | bone mass (inhibition of accelerated metabolic bone destruction and formation of abnormal brittle bone) [2]: maintained a normal level of bone mass | death and body weight reduction [2]: without causing death or reducing body weight | abnormal bone formation in the bone at the graft site (μCT, FIG. 1) ([2]; μCT on Day 11 after transplantation): evidently inhibited the abnormal bone formation
